Values after ≈ are worked out from the molar mass of the structure shown. Positions of bridges follow the written chain, without caps; N, C: chain ends. Non-standard residues stand in square brackets, D forms with d. Residues, ends and D or L forms follow the SMILES beside them. ξ: configuration not given here. *: point of attachment. Palmitoyl = CCCCCCCCCCCCCCCC(=O)*; Hexanoyl(4ξ-Me) = CCC(C)CCC(=O)*; Lauroyl = CCCCCCCCCCCC(=O)*; Decanoyl = CCCCCCCCCC(=O)*; dOrn = NCCC[C@@H](N)C(=O)O; Octanoyl = CCCCCCCC(=O)*; Orn = NCCC[C@H](N)C(=O)O; Hexanoyl = CCCCCC(=O)*; Butyryl = CCCC(=O)*; OAll = C=CCO*
Key:
E. coli = assay type: cell-based
Method: (§1) Minimum inhibitory concentration (MIC) was determined by broth microdilution according to CLSI guidelines. Blood agar plates were inoculated with glycerol stocks of Escherichia coli ATCC 25922, E. coli ATCC 25922 MCR-1, E. coli MCR-1 (clinical isolate from Utrecht Medical Center, NL), E. coli EQAS MCR-2 (clinical isolate from Wageningen University and Research, NL), Kiebsielia pneumoniae ATCC 11228, K. pneumoniae ATCC 13883, K. pneumonia 2048 (clinical isolate from Vrije Universiteit Amsterdam Medical Center, NL), K. pneumonia JS-123 (clinical isolate from Utrecht Medical Center, NL), Acinetobacter baumannii ATCC 17961, A. baumannil ATCC 17978, A. baumannii 2018-006 (clinical isolate from Rijksinstituut voor Volksgezondheid en Milieu, NL), A. baumannii MDR (clinical isolate from Vrije Universiteit Amsterdam Medical Center, NL), Pseudomonas aeruginosa ATCC 27853, P. aeruginosa PAO1, P. aeruginosa NRZ-03961 (Reference strain from Das Nationale Referenzzentrum für gramnegative Krankenhauserreger, DE), P. aeruginosa M-120 (clinical isolate from Leiden University Medical Center, NL) and Staphylococcus aureus USA300 (clinical isolate from Texas Children's Hospitalm, USA). E. coli 25922 MCR1 was grown on LB agar supplemented with kanamycin. The inoculated agar plates were then incubated for 16 hours at 37° C. Individually grown colonies were subsequently used to inoculate 3 mL aliquots of TSB that were then incubated at 37° C. with shaking at 220 rpm. In parallel, the compounds to be assessed were serially diluted with Mueller-Hinton broth (MHB) in polypropylene 96-well plates (50 μL in each well). Once the OD600 of the bacterial suspensions reached 0.5, the bacteria were diluted with MHB (final concentration 2×10^5 CFU mL^−1) and added to the microplates containing the test compounds (50 μL to each well, final volume: 100 μL). The well-plates were sealed with an adhesive membrane and after 16 hours of incubation at 37° C. with shaking at 220 rpm the wells were visually inspected for bacterial growth. MIC values were defined as the lowest concentration of the compound that prevented visible growth of bacteria.
MIC values were determined for the lipid analogues of brevicidine.
MIC values were determined for the position 9 analogues of linear brevicidine.

[1] = tested on: Escherichia coli ATCC 25922; assay type: cell-based; details: ATCC 25922
Outline: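 Broth microdilution in MHB per CLSI; inoculum 2×10^5 CFU mL^−1 from log-phase TSB cultures at OD600 0.5. Plates incubated 16 hours at 37° C with shaking at 220 rpm. MIC is the lowest concentration preventing visible growth.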

K. pneumoniae ATCC 11228 = assay type: cell-based, Klebsiella pneumoniae; details: ATCC 11228
Method: as §1

A. baumannii ATCC 17978 = assay type: cell-based, Acinetobacter baumannii; details: ATCC 17978
Method: as §1

P. aeruginosa PAO1 = assay type: cell-based, Pseudomonas aeruginosa; details: PAO1
Method: as §1

| Compound | E. coli MIC (E. coli) | Minimum inhibitory concentration (MIC) [1] | Minimum inhibitory concentration (MIC) (K. pneumoniae ATCC 11228) | Minimum inhibitory concentration (MIC) (A. baumannii ATCC 17978) | Minimum inhibitory concentration (MIC) (P. aeruginosa PAO1) |
| --- | --- | --- | --- | --- | --- |
| CCCCCCCCCC(=O)N[C@H](CC(N)=O)C(=O)N[C@H](Cc1ccc(O)cc1)C(=O)N[C@H](Cc1c[nH]c2ccccc12)C(=O)N[C@H](CCCN)C(=O)N[C@@H](CCCN)C(=O)NCC(=O)N[C@H](CCCN)C(=O)N[C@@H](Cc1c[nH]c2ccccc12)C(=O)N[C@@H]1C(=O)N[C@@H]([C@@H](C)CC)C(=O)NCC(=O)N[C@@H](CO)C(=O)O[C@@H]1C [Brev-C10] (Decanoyl-[dN][dY][dW][dOrn][Orn]G[dOrn]WTIGS; ester 9-C) | 1.56 µg/mL |  |  |  |  |
| CCCCCCCCCCCC(=O)N[C@H](CC(N)=O)C(=O)N[C@H](Cc1ccc(O)cc1)C(=O)N[C@H](Cc1c[nH]c2ccccc12)C(=O)N[C@H](CCCN)C(=O)N[C@@H](CCCN)C(=O)NCC(=O)N[C@H](CCCN)C(=O)N[C@@H](Cc1c[nH]c2ccccc12)C(=O)N[C@@H]1C(=O)N[C@@H]([C@@H](C)CC)C(=O)NCC(=O)N[C@@H](CO)C(=O)O[C@@H]1C [Brev-C12] (Lauroyl-[dN][dY][dW][dOrn][Orn]G[dOrn]WTIGS; ester 9-C) | 3.12 µg/mL |  |  |  |  |
| CCCCCCCCCCCCCCCC(=O)N[C@H](CC(N)=O)C(=O)N[C@H](Cc1ccc(O)cc1)C(=O)N[C@H](Cc1c[nH]c2ccccc12)C(=O)N[C@H](CCCN)C(=O)N[C@@H](CCCN)C(=O)NCC(=O)N[C@H](CCCN)C(=O)N[C@@H](Cc1c[nH]c2ccccc12)C(=O)N[C@@H]1C(=O)N[C@@H]([C@@H](C)CC)C(=O)NCC(=O)N[C@@H](CO)C(=O)O[C@@H]1C [Brev-C16] (Palmitoyl-[dN][dY][dW][dOrn][Orn]G[dOrn]WTIGS; ester 9-C) | >100 µg/mL |  |  |  |  |
| CC[C@H](C)[C@@H]1NC(=O)[C@@H](NC(=O)[C@H](Cc2c[nH]c3ccccc23)NC(=O)[C@@H](CCCN)NC(=O)CNC(=O)[C@H](CCCN)NC(=O)[C@@H](CCCN)NC(=O)[C@@H](Cc2c[nH]c3ccccc23)NC(=O)[C@@H](Cc2ccc(O)cc2)NC(=O)[C@H](N)CC(N)=O)[C@@H](C)OC(=O)[C@H](CO)NC(=O)CNC1=O [Brev-NH2] (H-[dN][dY][dW][dOrn][Orn]G[dOrn]WTIGS; ester 9-C) | 50 µg/mL |  |  |  |  |
| C=CCOC(=O)CC[C@H](NC(=O)[C@H](Cc1c[nH]c2ccccc12)NC(=O)[C@@H](CCCN)NC(=O)CNC(=O)[C@H](CCCN)NC(=O)[C@@H](CCCN)NC(=O)[C@@H](Cc1c[nH]c2ccccc12)NC(=O)[C@@H](Cc1ccc(O)cc1)NC(=O)[C@@H](CC(N)=O)NC(=O)CCC(C)CC)C(=O)N[C@H](C(=O)NCC(N)=O)[C@@H](C)CC (some centres unmarked) [Und(9-AllGlu)-NH2] ({Hexanoyl(4ξ-Me)}-[dN][dY][dW][dOrn][Orn]G[dOrn]WE(OAll)IG-NH2) | 0.4 µg/mL |  |  |  |  |
| CCC(C)CCC(=O)N[C@H](CC(N)=O)C(=O)N[C@H](Cc1ccc(O)cc1)C(=O)N[C@H](Cc1c[nH]c2ccccc12)C(=O)N[C@H](CCCN)C(=O)N[C@@H](CCCN)C(=O)NCC(=O)N[C@H](CCCN)C(=O)N[C@@H](Cc1c[nH]c2ccccc12)C(=O)N[C@@H](CC(=O)O)C(=O)N[C@H](C(=O)NCC(N)=O)[C@@H](C)CC (some centres unmarked) [Und(9-Asp)-NH2] ({Hexanoyl(4ξ-Me)}-[dN][dY][dW][dOrn][Orn]G[dOrn]WDIG-NH2) | 12.5 µg/mL |  |  |  |  |
| CCC(C)CCC(=O)N[C@H](CC(N)=O)C(=O)N[C@H](Cc1ccc(O)cc1)C(=O)N[C@H](Cc1c[nH]c2ccccc12)C(=O)N[C@H](CCCN)C(=O)N[C@@H](CCCN)C(=O)NCC(=O)N[C@H](CCCN)C(=O)N[C@@H](Cc1c[nH]c2ccccc12)C(=O)N[C@@H](CCC(N)=O)C(=O)N[C@H](C(=O)NCC(N)=O)[C@@H](C)CC (some centres unmarked) [Und(9-Gln)-NH2] ({Hexanoyl(4ξ-Me)}-[dN][dY][dW][dOrn][Orn]G[dOrn]WQIG-NH2) | 0.78 µg/mL |  |  |  |  |
| CCC(C)CCC(=O)N[C@H](CC(N)=O)C(=O)N[C@H](Cc1ccc(O)cc1)C(=O)N[C@H](Cc1c[nH]c2ccccc12)C(=O)N[C@H](CCCN)C(=O)N[C@@H](CCCN)C(=O)NCC(=O)N[C@H](CCCN)C(=O)N[C@@H](Cc1c[nH]c2ccccc12)C(=O)N[C@@H](CC(C)C)C(=O)N[C@H](C(=O)NCC(N)=O)[C@@H](C)CC (some centres unmarked) [Und(9-Leu)-NH2] ({Hexanoyl(4ξ-Me)}-[dN][dY][dW][dOrn][Orn]G[dOrn]WLIG-NH2) | 0.78 µg/mL |  |  |  |  |
| CCC(C)CCC(=O)N[C@H](CC(N)=O)C(=O)N[C@H](Cc1ccc(O)cc1)C(=O)N[C@H](Cc1c[nH]c2ccccc12)C(=O)N[C@H](CCCN)C(=O)N[C@@H](CCCN)C(=O)NCC(=O)N[C@H](CCCN)C(=O)N[C@@H](Cc1c[nH]c2ccccc12)C(=O)N[C@@H](Cc1ccccc1)C(=O)N[C@H](C(=O)NCC(N)=O)[C@@H](C)CC (some centres unmarked) [Und(9-Phe)-NH2] ({Hexanoyl(4ξ-Me)}-[dN][dY][dW][dOrn][Orn]G[dOrn]WFIG-NH2) | <0.20 µg/mL |  |  |  |  |
| CCC(C)CCC(=O)N[C@H](CC(N)=O)C(=O)N[C@H](Cc1ccc(O)cc1)C(=O)N[C@H](Cc1c[nH]c2ccccc12)C(=O)N[C@H](CCCN)C(=O)N[C@@H](CCCN)C(=O)NCC(=O)N[C@H](CCCN)C(=O)N[C@@H](Cc1c[nH]c2ccccc12)C(=O)N[C@@H](Cc1c[nH]c2ccccc12)C(=O)N[C@H](C(=O)NCC(N)=O)[C@@H](C)CC (some centres unmarked) [Und(9-Trp)-NH2] ({Hexanoyl(4ξ-Me)}-[dN][dY][dW][dOrn][Orn]G[dOrn]WWIG-NH2) | 0.78 µg/mL |  |  |  |  |

The next lines start with the values.

| E. coli MIC (E. coli) | Minimum inhibitory concentration (MIC) [1] | Minimum inhibitory concentration (MIC) (K. pneumoniae ATCC 11228) | Minimum inhibitory concentration (MIC) (A. baumannii ATCC 17978) | Minimum inhibitory concentration (MIC) (P. aeruginosa PAO1) | Compound |
| --- | --- | --- | --- | --- | --- |
|  | 16 µg/mL (≈ 10.6 µM) | 16 µg/mL (≈ 10.6 µM) | 64 µg/mL (≈ 42.5 µM) | 16 µg/mL (≈ 10.6 µM) | CC[C@H](C)[C@@H]1NC(=O)[C@@H](NC(=O)[C@H](Cc2c[nH]c3ccccc23)NC(=O)[C@@H](CCCN)NC(=O)CNC(=O)[C@H](CCCN)NC(=O)[C@@H](CCCN)NC(=O)[C@@H](Cc2c[nH]c3ccccc23)NC(=O)[C@@H](Cc2ccc(O)cc2)NC(=O)[C@@H](CO)NC(C)=O)[C@@H](C)OC(=O)CNC(=O)CNC(=O)[C@H](CC(N)=O)NC1=O [Compound C2] (Ac-[dS][dY][dW][dOrn][Orn]G[dOrn]WTINGG; ester 9-C) |
|  | 8 µg/mL (≈ 5.21 µM) | 8 µg/mL (≈ 5.21 µM) | 4 µg/mL (≈ 2.61 µM) | 8 µg/mL (≈ 5.21 µM) | CCCC(=O)N[C@H](CO)C(=O)N[C@H](Cc1ccc(O)cc1)C(=O)N[C@H](Cc1c[nH]c2ccccc12)C(=O)N[C@H](CCCN)C(=O)N[C@@H](CCCN)C(=O)NCC(=O)N[C@H](CCCN)C(=O)N[C@@H](Cc1c[nH]c2ccccc12)C(=O)N[C@@H]1C(=O)N[C@@H]([C@@H](C)CC)C(=O)N[C@@H](CC(N)=O)C(=O)NCC(=O)NCC(=O)O[C@@H]1C [Compound C4] (Butyryl-[dS][dY][dW][dOrn][Orn]G[dOrn]WTINGG; ester 9-C) |
|  | 1 to 2 µg/mL | 2 µg/mL (≈ 1.28 µM) | 1 µg/mL (≈ 0.64 µM) | 1 to 2 µg/mL | CCCCCC(=O)N[C@H](CO)C(=O)N[C@H](Cc1ccc(O)cc1)C(=O)N[C@H](Cc1c[nH]c2ccccc12)C(=O)N[C@H](CCCN)C(=O)N[C@@H](CCCN)C(=O)NCC(=O)N[C@H](CCCN)C(=O)N[C@@H](Cc1c[nH]c2ccccc12)C(=O)N[C@@H]1C(=O)N[C@@H]([C@@H](C)CC)C(=O)N[C@@H](CC(N)=O)C(=O)NCC(=O)NCC(=O)O[C@@H]1C [Compound C6] (Hexanoyl-[dS][dY][dW][dOrn][Orn]G[dOrn]WTINGG; ester 9-C) |
|  | 0.5 to 1 µg/mL | 0.5 to 1 µg/mL | 0.5 to 1 µg/mL | 1 µg/mL (≈ 0.629 µM) | CCCCCCCC(=O)N[C@H](CO)C(=O)N[C@H](Cc1ccc(O)cc1)C(=O)N[C@H](Cc1c[nH]c2ccccc12)C(=O)N[C@H](CCCN)C(=O)N[C@@H](CCCN)C(=O)NCC(=O)N[C@H](CCCN)C(=O)N[C@@H](Cc1c[nH]c2ccccc12)C(=O)N[C@@H]1C(=O)N[C@@H]([C@@H](C)CC)C(=O)N[C@@H](CC(N)=O)C(=O)NCC(=O)NCC(=O)O[C@@H]1C [Compound C8] (Octanoyl-[dS][dY][dW][dOrn][Orn]G[dOrn]WTINGG; ester 9-C) |
